From article PMC12631985 (Environmental Science & Technology, 2025)

Columns and labels:
[1] = system: AR mRNA; test: Quantitative RT-PCR for DHT-induced AR mRNA expression in 22Rv1/MMTV-GRKO cells; type: cell-based, human; conditions: with DHT; highest noncytotoxic concentration (≥80% viability); n = 3
[2] = system: zebrafish; conditions: previous research; ref number not printed at the place; cited from earlier work
[3] = system: AR protein expression; test: Western blot for DHT-induced AR protein expression; conditions: highest noncytotoxic concentration (≥80% viability), n = 3

Compound: Fc1ccc([C@]2(Cn3cncn3)O[C@H]2c2ccccc2Cl)cc1 (racemic) [epoxiconazole]
- reduction in AR mRNA levels compared to the DHT-only treatment group [1]: 59.0%

Compound: N#CC(CCc1ccc(Cl)cc1)(Cn1cncn1)c1ccccc1 (centres unmarked) [fenbuconazole]
- reduction in AR mRNA levels compared to the DHT-only treatment group [1]: 45.0%
- toxicity in zebrafish [2]: significantly impaired mitochondrial function and locomotor activity
- suppression level of DHT-induced AR protein expression compared with the DHT-only treatment group [3]: 24.6%

Compound: C[Si](Cn1cncn1)(c1ccc(F)cc1)c1ccc(F)cc1 [flusilazole]
- reduction in AR mRNA levels compared to the DHT-only treatment group [1]: 60.4%

Compound: CC1(C)CCC(Cc2ccc(Cl)cc2)C1(O)Cn1cncn1 (centres unmarked) [metconazole]
- reduction in AR mRNA levels compared to the DHT-only treatment group [1]: 27.8%

Compound: CC(C)(C)C(O)(CCc1ccc(Cl)cc1)Cn1cncn1 (centres unmarked) [tebuconazole]
- reduction in AR mRNA levels compared to the DHT-only treatment group [1]: 37.5%

Compound: CCCOC/C(=N\c1ccc(Cl)cc1C(F)(F)F)n1ccnc1 [triflumizole]
- reduction in AR mRNA levels compared to the DHT-only treatment group [1]: 26.5%
